Here are results for 2 molecules from ChEMBL document CHEMBL4507315 (2021).

Activity calls are given as the source filed them. No cut-off for these calls is given here.

As a reminder, the pKi is −log10 of the Ki, conventionally taken in molar units. One may read the inhibition as the relative decrease from the control value, in per cent. The IC50 is the concentration at which inhibition is half-maximal.

Test [1] has as its target Kappa-type opioid receptor (Homo sapiens, UniProt P41145). The experiment in a line: GPCRScan assay: inhibition of KOR. Details: radioligand conc. used [nm] 0.6 – 1.2, parental cells stable HEK.
The target of the next test is Histamine H1 receptor (Homo sapiens, UniProt P35367). The experiment in a line: GPCRScan assay: inhibition of H1. More on the design: radioligand conc. used [nm] 0.6 – 2.0, parental cells stable HEK.
Chain of Histamine H1 receptor (P35367 whole entry): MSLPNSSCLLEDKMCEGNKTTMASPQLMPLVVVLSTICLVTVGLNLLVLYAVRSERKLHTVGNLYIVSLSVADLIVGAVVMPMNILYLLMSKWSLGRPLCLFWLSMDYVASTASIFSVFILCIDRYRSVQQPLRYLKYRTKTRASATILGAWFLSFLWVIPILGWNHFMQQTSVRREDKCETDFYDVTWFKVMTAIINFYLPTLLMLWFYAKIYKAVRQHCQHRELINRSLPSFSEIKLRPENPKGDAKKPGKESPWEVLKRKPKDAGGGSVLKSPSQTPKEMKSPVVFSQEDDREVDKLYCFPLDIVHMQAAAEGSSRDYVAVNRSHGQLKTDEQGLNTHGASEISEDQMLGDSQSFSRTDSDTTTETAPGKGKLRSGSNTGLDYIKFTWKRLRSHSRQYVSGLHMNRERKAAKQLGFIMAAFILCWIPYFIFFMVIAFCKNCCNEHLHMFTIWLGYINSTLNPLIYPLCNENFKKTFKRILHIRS
Test [2] addresses Sigma intracellular receptor 2 (Homo sapiens, UniProt Q5BJF2). Description: GPCRScan assay: inhibition of Sigma 2. More on the design: radioligand conc. used [nm] 5.0, parental cells HEKT.
Test [3] relates to Tyrosine-protein kinase ABL1 (Homo sapiens), P00519 [Q252H]. The following applies: Compound concentration 100.0 nM.
In test [4] the target is Activin receptor type-1B (Homo sapiens) (UniProt P36896). The note with it: Compound concentration 100.0 nM.
Chain of Activin receptor type-1B (Homo sapiens) (P36896 whole entry): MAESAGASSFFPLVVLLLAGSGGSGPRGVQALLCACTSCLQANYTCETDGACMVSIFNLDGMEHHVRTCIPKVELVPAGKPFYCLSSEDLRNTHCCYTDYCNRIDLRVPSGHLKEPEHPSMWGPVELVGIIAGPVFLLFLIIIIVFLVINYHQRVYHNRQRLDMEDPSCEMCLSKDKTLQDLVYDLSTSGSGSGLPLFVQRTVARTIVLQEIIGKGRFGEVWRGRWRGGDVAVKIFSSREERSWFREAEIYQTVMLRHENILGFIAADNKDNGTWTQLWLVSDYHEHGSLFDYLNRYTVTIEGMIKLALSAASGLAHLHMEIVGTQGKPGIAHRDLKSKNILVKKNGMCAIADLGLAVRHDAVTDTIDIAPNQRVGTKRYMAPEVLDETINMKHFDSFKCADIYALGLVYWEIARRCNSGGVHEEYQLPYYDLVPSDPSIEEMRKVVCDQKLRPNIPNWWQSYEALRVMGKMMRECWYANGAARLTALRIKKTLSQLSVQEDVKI
Test [5] relates to ALK tyrosine kinase receptor (Homo sapiens), Q9UM73 [C1156Y]. The note with it: Compound concentration 100.0 nM.
Test [6] concerns the target Cyclin-dependent kinase 13 (Homo sapiens) (UniProt Q14004). The note with it: Compound concentration 100.0 nM.
The target of test [7] is Casein kinase I isoform gamma-3 (Homo sapiens) (UniProt Q9Y6M4). The note with it: Compound concentration 100.0 nM.
Chain of Casein kinase I isoform gamma-3 (Homo sapiens) (Q9Y6M4 whole entry, looked up, canonical isoform): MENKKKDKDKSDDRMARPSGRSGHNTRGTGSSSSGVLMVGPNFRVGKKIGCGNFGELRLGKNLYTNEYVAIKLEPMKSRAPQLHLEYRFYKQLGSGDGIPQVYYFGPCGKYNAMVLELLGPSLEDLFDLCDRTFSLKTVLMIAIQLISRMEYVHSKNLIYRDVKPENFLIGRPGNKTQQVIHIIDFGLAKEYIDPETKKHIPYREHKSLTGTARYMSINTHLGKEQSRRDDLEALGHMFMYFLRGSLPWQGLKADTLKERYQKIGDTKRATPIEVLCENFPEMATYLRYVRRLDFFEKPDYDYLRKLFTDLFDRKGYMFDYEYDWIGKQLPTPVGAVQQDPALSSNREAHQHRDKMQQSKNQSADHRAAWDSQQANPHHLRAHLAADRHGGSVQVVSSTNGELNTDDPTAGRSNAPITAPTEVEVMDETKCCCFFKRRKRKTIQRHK
Test [8] relates to Epidermal growth factor receptor (Homo sapiens), P00533 [UNDEFINED MUTATION]. The note with it: Compound concentration 100.0 nM.
The subject of test [9] is Epidermal growth factor receptor (Homo sapiens), P00533 [L861Q]. The note with it: Compound concentration 100.0 nM.
Test [10] has as its target Receptor tyrosine-protein kinase erbB-2 (Homo sapiens) (UniProt P04626). The following applies: Compound concentration 100.0 nM.
The target in test [11] is Inhibitor of nuclear factor kappa-B kinase subunit beta (Homo sapiens) (UniProt O14920). The following applies: Compound concentration 100.0 nM.
Test [12] deals with Myosin light chain kinase (Homo sapiens) (UniProt Q32MK0). The note with it: Compound concentration 100.0 nM.
Chain of Myosin light chain kinase (Homo sapiens) (Q32MK0 whole entry): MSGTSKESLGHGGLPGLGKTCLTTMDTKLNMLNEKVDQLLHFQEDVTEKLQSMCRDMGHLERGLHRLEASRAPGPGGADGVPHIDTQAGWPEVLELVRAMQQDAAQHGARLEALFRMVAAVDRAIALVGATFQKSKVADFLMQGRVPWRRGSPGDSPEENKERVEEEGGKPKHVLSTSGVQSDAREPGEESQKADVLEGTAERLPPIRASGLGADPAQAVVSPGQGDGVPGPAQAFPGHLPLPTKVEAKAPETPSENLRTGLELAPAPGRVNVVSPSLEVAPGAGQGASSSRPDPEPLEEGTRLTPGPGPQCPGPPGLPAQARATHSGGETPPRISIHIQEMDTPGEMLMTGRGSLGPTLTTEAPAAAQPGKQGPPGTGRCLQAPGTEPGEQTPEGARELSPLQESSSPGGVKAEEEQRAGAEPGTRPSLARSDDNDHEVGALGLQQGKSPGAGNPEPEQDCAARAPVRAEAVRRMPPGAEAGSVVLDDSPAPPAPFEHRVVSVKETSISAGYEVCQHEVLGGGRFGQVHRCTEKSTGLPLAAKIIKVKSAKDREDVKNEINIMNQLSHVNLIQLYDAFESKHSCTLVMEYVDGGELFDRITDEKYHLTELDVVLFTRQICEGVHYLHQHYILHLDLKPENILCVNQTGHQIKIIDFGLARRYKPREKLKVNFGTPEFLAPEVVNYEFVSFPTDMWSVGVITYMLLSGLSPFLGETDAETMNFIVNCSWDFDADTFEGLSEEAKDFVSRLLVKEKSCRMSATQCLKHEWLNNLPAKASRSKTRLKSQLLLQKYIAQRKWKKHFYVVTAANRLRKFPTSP
The target of test [13] is Myosin light chain kinase, smooth muscle (Homo sapiens) (UniProt Q15746). The note with it: Compound concentration 100.0 nM.
Chain of Myosin light chain kinase, smooth muscle (Homo sapiens) (Q15746 whole entry): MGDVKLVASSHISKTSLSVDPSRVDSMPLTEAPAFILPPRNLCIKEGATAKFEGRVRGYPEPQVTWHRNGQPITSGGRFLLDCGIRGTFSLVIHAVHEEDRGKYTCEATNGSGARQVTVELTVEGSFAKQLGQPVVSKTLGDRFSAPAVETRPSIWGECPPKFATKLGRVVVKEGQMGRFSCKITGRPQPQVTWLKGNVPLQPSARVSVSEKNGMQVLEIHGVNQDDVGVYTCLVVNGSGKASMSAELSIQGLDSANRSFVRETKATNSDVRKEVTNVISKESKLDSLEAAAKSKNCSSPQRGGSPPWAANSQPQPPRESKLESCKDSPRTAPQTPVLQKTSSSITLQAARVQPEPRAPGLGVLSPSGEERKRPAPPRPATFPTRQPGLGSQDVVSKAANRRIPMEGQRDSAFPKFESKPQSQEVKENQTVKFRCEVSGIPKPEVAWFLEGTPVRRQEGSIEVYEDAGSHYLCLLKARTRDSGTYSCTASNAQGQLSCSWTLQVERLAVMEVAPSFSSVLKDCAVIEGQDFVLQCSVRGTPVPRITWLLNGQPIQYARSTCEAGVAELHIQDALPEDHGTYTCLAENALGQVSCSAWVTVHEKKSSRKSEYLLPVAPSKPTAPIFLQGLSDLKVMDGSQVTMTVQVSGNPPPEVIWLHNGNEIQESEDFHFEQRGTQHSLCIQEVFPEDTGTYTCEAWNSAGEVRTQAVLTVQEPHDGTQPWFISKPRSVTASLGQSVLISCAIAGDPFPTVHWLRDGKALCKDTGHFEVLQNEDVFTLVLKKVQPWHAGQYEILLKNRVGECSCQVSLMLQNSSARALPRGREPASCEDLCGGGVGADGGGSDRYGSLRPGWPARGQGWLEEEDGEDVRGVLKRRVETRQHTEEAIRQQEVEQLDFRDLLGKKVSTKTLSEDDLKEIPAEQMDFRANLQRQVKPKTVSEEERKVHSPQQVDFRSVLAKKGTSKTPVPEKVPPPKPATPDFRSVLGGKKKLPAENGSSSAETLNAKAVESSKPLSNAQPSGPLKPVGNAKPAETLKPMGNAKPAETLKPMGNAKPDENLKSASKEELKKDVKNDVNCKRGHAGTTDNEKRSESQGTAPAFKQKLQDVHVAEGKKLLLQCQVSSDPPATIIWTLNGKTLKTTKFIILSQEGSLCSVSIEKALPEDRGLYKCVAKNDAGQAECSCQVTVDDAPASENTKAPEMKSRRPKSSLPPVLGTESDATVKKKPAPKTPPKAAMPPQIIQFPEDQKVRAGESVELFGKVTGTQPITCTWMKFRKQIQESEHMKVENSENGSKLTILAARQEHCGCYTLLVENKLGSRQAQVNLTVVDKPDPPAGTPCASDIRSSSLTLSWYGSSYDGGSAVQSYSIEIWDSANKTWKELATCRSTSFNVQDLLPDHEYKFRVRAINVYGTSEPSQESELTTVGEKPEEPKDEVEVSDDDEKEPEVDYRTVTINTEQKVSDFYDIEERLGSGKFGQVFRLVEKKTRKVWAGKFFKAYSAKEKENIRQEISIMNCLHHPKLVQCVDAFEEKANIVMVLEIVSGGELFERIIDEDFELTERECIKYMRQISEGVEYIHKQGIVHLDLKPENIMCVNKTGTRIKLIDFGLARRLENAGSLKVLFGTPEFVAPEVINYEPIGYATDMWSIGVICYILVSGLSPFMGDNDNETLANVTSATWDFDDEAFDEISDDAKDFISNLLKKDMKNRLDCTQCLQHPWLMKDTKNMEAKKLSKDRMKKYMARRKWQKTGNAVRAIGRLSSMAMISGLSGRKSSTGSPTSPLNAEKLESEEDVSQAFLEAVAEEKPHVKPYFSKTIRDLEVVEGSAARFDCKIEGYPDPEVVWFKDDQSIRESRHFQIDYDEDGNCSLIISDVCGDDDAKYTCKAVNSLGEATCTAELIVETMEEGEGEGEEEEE
In test [14] the target is Mitogen-activated protein kinase 14 (Homo sapiens) (UniProt Q16539). The following applies: Compound concentration 100.0 nM.
In test [15] the target is Serine/threonine-protein kinase PAK 6 (Homo sapiens) (UniProt Q9NQU5). The following applies: Compound concentration 100.0 nM.
Test [16] addresses cAMP-dependent protein kinase catalytic subunit beta (Homo sapiens) (UniProt P22694). The note with it: Compound concentration 100.0 nM.
Test [17] concerns the target Ribosomal protein S6 kinase alpha-6 (Homo sapiens) (UniProt Q9UK32). The note with it: Compound concentration 100.0 nM.
Test [18] addresses D(4) dopamine receptor (Homo sapiens) (UniProt P21917). The following applies: Compound concentration 10.0 uM.
In test [19] the target is D(1B) dopamine receptor (Homo sapiens) (UniProt P21918). The note with it: Compound concentration 10.0 uM.
Chain of D(1B) dopamine receptor (Homo sapiens) (P21918 whole entry): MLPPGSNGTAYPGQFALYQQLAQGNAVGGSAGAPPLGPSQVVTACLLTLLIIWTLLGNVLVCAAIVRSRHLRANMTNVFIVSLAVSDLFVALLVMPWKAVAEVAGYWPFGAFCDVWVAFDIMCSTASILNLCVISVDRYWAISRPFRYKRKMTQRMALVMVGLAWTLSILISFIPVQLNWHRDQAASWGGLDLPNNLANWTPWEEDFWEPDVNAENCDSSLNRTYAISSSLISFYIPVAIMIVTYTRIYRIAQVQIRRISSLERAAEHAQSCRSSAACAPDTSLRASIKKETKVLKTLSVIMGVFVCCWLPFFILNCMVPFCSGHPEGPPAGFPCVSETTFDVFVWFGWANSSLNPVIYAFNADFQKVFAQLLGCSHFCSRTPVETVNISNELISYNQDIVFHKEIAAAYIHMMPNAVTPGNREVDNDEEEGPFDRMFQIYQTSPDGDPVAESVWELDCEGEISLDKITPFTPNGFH
For test [20], the target named is Histamine H2 receptor (Homo sapiens) (UniProt P25021). The following applies: Compound concentration 10.0 uM.
Test [21] concerns the target Muscarinic acetylcholine receptor M5 (Homo sapiens) (UniProt P08912). The note with it: Compound concentration 10.0 uM.
Test [22] deals with Heat shock protein beta-1 (Homo sapiens, UniProt P04792). The experiment in a line: Inhibition of HSP27 (Ser82) (Western blot).
The species named for another test is Rattus norvegicus. The following applies: Compound concentration 10.0 uM.

Chain of Kappa-type opioid receptor (P41145 whole entry): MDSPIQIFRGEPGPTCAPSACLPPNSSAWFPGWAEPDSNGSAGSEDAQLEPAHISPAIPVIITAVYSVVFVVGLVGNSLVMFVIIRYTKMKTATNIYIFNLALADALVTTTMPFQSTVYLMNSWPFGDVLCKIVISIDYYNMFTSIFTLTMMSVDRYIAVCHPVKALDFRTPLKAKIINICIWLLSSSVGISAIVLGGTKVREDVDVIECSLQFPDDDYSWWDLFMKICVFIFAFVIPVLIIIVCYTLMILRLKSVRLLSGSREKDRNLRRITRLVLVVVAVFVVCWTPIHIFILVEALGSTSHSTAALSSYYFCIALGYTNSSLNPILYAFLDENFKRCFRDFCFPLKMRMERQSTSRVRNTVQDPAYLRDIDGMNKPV

Turning to `O=C(NCCCC1CCCCC1)c1ccc(CNC(=O)c2cnn(-c3ccccc3)c2C(F)(F)F)cc1` [SR-321], the Ki in test [1] is above 10000 nM; on Histamine H1 receptor it was above 10000 nM; in test [2] (read-out: Ki) it was 2890 nM; in test [2] (read-out: pKi (converted)), 2820 nM. For the same molecule, the pKi (in [1]; on Histamine H1 receptor) was below 5 each time. The residual activity in test [3] was 98%; in test [4] it was 100%; in [5], 100%; in [6] it was 100%; in test [7], 100%; in test [8], 100%. In addition, the residual activity in test [9] is 100%; in test [10], 100%; in test [11], 100%; in [12], 92%; in test [13] it was 100%; in test [14] it was 100%. Also, the residual activity in test [15] is 100%; in test [16], 100%; in [17], 92%. The inhibition was 21.7% in test [18], 23.2% in test [19], -2.78% in test [20] and -4.46% in [21].
In the case of `Nc1c(C(=O)NCc2ccc(C(=O)NCCCC3CCCCC3)cc2)cnn1-c1ccccc1` [SR-318], the IC50 in [22] was < 1000 nM (active). The residual activity was 98% in [3]; 100% in test [4]; 100% in [5]; 79% in test [6]; 100% in test [7]; 100% in test [8]. The residual activity in test [9] was 90%; in [10], 100%; in test [11], 100%; in test [12], 100%; in [13], 68%; in test [15], 100%. In addition, the residual activity in test [16] is 82%; in [17], 61%. Also, the figures for the inhibition (in test [19]; in the test filed under Rattus norvegicus) were 28.4% and 27.6%, respectively.
